Measurements taken from patent US20240109903A1, “SUBSTITUTED HETEROCYCLES FOR TREATING CANCER” (Northwestern University, priority 2022, published 2024).

Experiments:
KM12 = experiment: NCI 60 five-dose screen KM12; format: cell-based; settings: Homo sapiens, five-dose
LOX IMVI = experiment: NCI 60 five-dose screen LOX IMVI; format: cell-based; settings: Homo sapiens, five-dose
HCT-15 = experiment: NCI 60 five-dose screen HCT-15; format: cell-based; settings: Homo sapiens, five-dose
HCC-2998 = experiment: NCI 60 five-dose screen HCC-2998; format: cell-based; settings: Homo sapiens, five-dose
MOLT-4 = experiment: NCI 60 five-dose screen MOLT-4; format: cell-based; settings: Homo sapiens, five-dose
MALME-3M = experiment: NCI 60 five-dose screen MALME-3M; format: cell-based; settings: Homo sapiens, MALME-3M, five-dose
IGROV1 = experiment: NCI 60 five-dose screen IGROV1; format: cell-based; settings: Homo sapiens, IGROV-1, five-dose
SF-539 = experiment: NCI 60 five-dose screen SF-539; format: cell-based; settings: Homo sapiens, five-dose
A549/ATCC = experiment: NCI 60 five-dose screen A549/ATCC; format: cell-based; settings: Homo sapiens, five-dose
SNB-19 = experiment: NCI 60 five-dose screen SNB-19; format: cell-based; settings: Homo sapiens, five-dose
HOP-92 = experiment: NCI 60 five-dose screen HOP-92; format: cell-based; settings: Homo sapiens, five-dose
MCF7 = experiment: NCI 60 five-dose screen MCF7; format: cell-based; settings: Homo sapiens, five-dose
NCI-H322M = experiment: NCI 60 five-dose screen NCI-H322M; format: cell-based; settings: Homo sapiens, five-dose
K-562 = experiment: NCI 60 five-dose screen K-562; format: cell-based; settings: Homo sapiens, K562, five-dose
COLO 205 = experiment: NCI 60 five-dose screen COLO 205; format: cell-based; settings: Homo sapiens, five-dose
RXF 393 = experiment: NCI 60 five-dose screen RXF 393; format: cell-based; settings: Homo sapiens, five-dose
HT29 = experiment: NCI 60 five-dose screen HT29; format: cell-based; settings: Homo sapiens, HT-29, five-dose
CAKI-1 = experiment: NCI 60 five-dose screen CAKI-1; format: cell-based; settings: Homo sapiens, five-dose
SR = experiment: NCI 60 five-dose screen SR; format: cell-based, human; settings: five-dose
MDA-MB-231/ATCC = experiment: NCI 60 five-dose screen MDA-MB-231/ATCC; format: cell-based; settings: Homo sapiens, five-dose
OVCAR-8 = experiment: NCI 60 five-dose screen OVCAR-8; format: cell-based; settings: Homo sapiens, five-dose
SF-295 = experiment: NCI 60 five-dose screen SF-295; format: cell-based; settings: Homo sapiens, five-dose
SF-268 = experiment: NCI 60 five-dose screen SF-268; format: cell-based; settings: Homo sapiens, five-dose
HL-60(TB) = experiment: NCI 60 five-dose screen HL-60(TB); format: cell-based; settings: Homo sapiens, five-dose
TK-10 = experiment: NCI 60 five-dose screen TK-10; format: cell-based; settings: Homo sapiens, five-dose
SN12C = experiment: NCI 60 five-dose screen SN12C; format: cell-based; settings: Homo sapiens, five-dose
786-0 = experiment: NCI 60 five-dose screen 786-0; format: cell-based; settings: Homo sapiens, five-dose
SK-MEL-2 = experiment: NCI 60 five-dose screen SK-MEL-2; format: cell-based; settings: Homo sapiens, five-dose
[1] = read-out: LC50 (the source's name) (converted)
[2] = read-out: LC50 (the source's name)

Question: For OC1CCC(Cn2c(C(F)(F)F)cc3c(Cl)ncnc32)CC1 (stereo not shown) [NUCC-0226689], which GI50 (KM12) is on record?
Answer: 26.3 µM

Question: And the IC50 (KM12)?
Answer: 37.2 µM

Question: What about the IC (TGI) (KM12) of the same molecule?
Answer: 93.3 µM

Question: And the CC50 (KM12; [1])?
Answer: ≥ 100 µM

Question: And the GI50 (LOX IMVI)?
Answer: 1.7 µM

Question: What about the IC50 (LOX IMVI) of the same molecule?
Answer: 3.02 µM

Question: What about the IC (TGI) (LOX IMVI) of the same molecule?
Answer: 3.16 µM

Question: And the CC50 (LOX IMVI; [1])?
Answer: 5.75 µM

Question: What about the GI50 (HCT-15) of the same molecule?
Answer: 3.72 µM

Question: And the IC50 (HCT-15)?
Answer: 4.79 µM

Question: And the IC (TGI) (HCT-15)?
Answer: 20 µM

Question: What about the CC50 (HCT-15; [1]) of the same molecule?
Answer: ≥ 100 µM

Question: And the GI50 (HCC-2998)?
Answer: 1.78 µM

Question: What about the IC50 (HCC-2998) of the same molecule?
Answer: 3.24 µM

Question: And the IC (TGI) (HCC-2998)?
Answer: 3.31 µM

Question: What about the CC50 (HCC-2998; [1]) of the same molecule?
Answer: 6.17 µM

Question: What about the GI50 (MOLT-4) of the same molecule?
Answer: 2.75 µM

Question: What about the IC50 (MOLT-4) of the same molecule?
Answer: 4.47 µM

Question: And the IC (TGI) (MOLT-4)?
Answer: 8.13 µM

Question: What about the CC50 (MOLT-4; [2]) of the same molecule?
Answer: ≥ 100 µM

Question: And the GI50 (MALME-3M)?
Answer: 17.8 µM

Question: And the IC50 (MALME-3M)?
Answer: 85.1 µM

Question: What about the IC (TGI) (MALME-3M) of the same molecule?
Answer: 64.6 µM

Question: And the CC50 (MALME-3M; [1])?
Answer: ≥ 100 µM

Question: And the GI50 (IGROV1)?
Answer: 1.95 µM

Question: And the IC50 (IGROV1)?
Answer: 3.47 µM

Question: What about the IC (TGI) (IGROV1) of the same molecule?
Answer: 4.07 µM

Question: What about the CC50 (IGROV1; [1]) of the same molecule?
Answer: 8.51 µM

Question: What about the GI50 (SF-539) of the same molecule?
Answer: 17.8 µM

Question: And the IC50 (SF-539)?
Answer: 32.4 µM

Question: What about the IC (TGI) (SF-539) of the same molecule?
Answer: 38.9 µM

Question: And the CC50 (SF-539; [1])?
Answer: 85.1 µM

Question: What about the GI50 (A549/ATCC) of the same molecule?
Answer: 30.9 µM

Question: And the IC50 (A549/ATCC)?
Answer: 43.7 µM

Question: And the IC (TGI) (A549/ATCC)?
Answer: 100 µM

Question: What about the CC50 (A549/ATCC; [1]) of the same molecule?
Answer: ≥ 100 µM

Question: What about the GI50 (SNB-19) of the same molecule?
Answer: 13.5 µM

Question: And the IC50 (SNB-19)?
Answer: 24 µM

Question: What about the IC (TGI) (SNB-19) of the same molecule?
Answer: 26.9 µM

Question: What about the CC50 (SNB-19; [1]) of the same molecule?
Answer: 53.7 µM

Question: What about the GI50 (HOP-92) of the same molecule?
Answer: 20.4 µM

Question: And the IC50 (HOP-92)?
Answer: 74.1 µM

Question: What about the IC (TGI) (HOP-92) of the same molecule?
Answer: 64.6 µM

Question: What about the CC50 (HOP-92; [1]) of the same molecule?
Answer: ≥ 100 µM

Question: And the GI50 (MCF7)?
Answer: 37.2 µM

Question: What about the IC50 (MCF7) of the same molecule?
Answer: 52.5 µM

Question: And the IC (TGI) (MCF7)?
Answer: 100 µM

Question: What about the CC50 (MCF7; [1]) of the same molecule?
Answer: ≥ 100 µM

Question: And the GI50 (NCI-H322M)?
Answer: 3.8 µM

Question: What about the IC50 (NCI-H322M) of the same molecule?
Answer: 10.2 µM

Question: What about the IC (TGI) (NCI-H322M) of the same molecule?
Answer: 13.5 µM

Question: And the CC50 (NCI-H322M; [1])?
Answer: 38 µM

Question: What about the GI50 (K-562) of the same molecule?
Answer: 2.88 µM

Question: What about the IC50 (K-562) of the same molecule?
Answer: 3.55 µM

Question: What about the IC (TGI) (K-562) of the same molecule?
Answer: 100 µM

Question: What about the CC50 (K-562; [2]) of the same molecule?
Answer: ≥ 100 µM

Question: And the GI50 (COLO 205)?
Answer: 24.5 µM

Question: And the IC50 (COLO 205)?
Answer: 45.7 µM

Question: What about the IC (TGI) (COLO 205) of the same molecule?
Answer: 100 µM

Question: What about the CC50 (COLO 205; [1]) of the same molecule?
Answer: ≥ 100 µM

Question: What about the GI50 (RXF 393) of the same molecule?
Answer: 12.6 µM

Question: And the IC50 (RXF 393)?
Answer: 37.2 µM

Question: And the IC (TGI) (RXF 393)?
Answer: 34.7 µM

Question: And the CC50 (RXF 393; [1])?
Answer: 97.7 µM

Question: And the GI50 (HT29)?
Answer: 15.5 µM

Question: What about the IC50 (HT29) of the same molecule?
Answer: 21.9 µM

Question: And the IC (TGI) (HT29)?
Answer: 100 µM

Question: And the CC50 (HT29; [1])?
Answer: ≥ 100 µM

Question: And the GI50 (CAKI-1)?
Answer: 16.6 µM

Question: And the IC50 (CAKI-1)?
Answer: 33.1 µM

Question: What about the IC (TGI) (CAKI-1) of the same molecule?
Answer: 52.5 µM

Question: And the CC50 (CAKI-1; [1])?
Answer: ≥ 100 µM

Question: And the GI50 (SR; Homo sapiens)?
Answer: 2.14 µM

Question: And the IC50 (SR; Homo sapiens)?
Answer: 3.55 µM

Question: What about the CC50 (SR; Homo sapiens, read-out: LC50 (the source's name)) of the same molecule?
Answer: ≥ 100 µM

Question: What about the TGI (SR) of the same molecule?
Answer: 5.17 −log[M]

Question: What about the GI50 (MDA-MB-231/ATCC) of the same molecule?
Answer: 4.47 µM

Question: What about the IC50 (MDA-MB-231/ATCC) of the same molecule?
Answer: 11 µM

Question: What about the IC (TGI) (MDA-MB-231/ATCC) of the same molecule?
Answer: 20 µM

Question: What about the CC50 (MDA-MB-231/ATCC; [1]) of the same molecule?
Answer: 69.2 µM

Question: And the GI50 (OVCAR-8)?
Answer: 2.29 µM

Question: What about the IC50 (OVCAR-8) of the same molecule?
Answer: 3.63 µM

Question: What about the IC (TGI) (OVCAR-8) of the same molecule?
Answer: 5.37 µM

Question: And the CC50 (OVCAR-8; [1])?
Answer: 30.9 µM

Question: What about the GI50 (SF-295) of the same molecule?
Answer: 22.9 µM

Question: What about the IC50 (SF-295) of the same molecule?
Answer: 38.9 µM

Question: And the IC (TGI) (SF-295)?
Answer: 83.2 µM

Question: What about the CC50 (SF-295; [1]) of the same molecule?
Answer: ≥ 100 µM

Question: And the GI50 (SF-268)?
Answer: 2.51 µM

Question: What about the IC50 (SF-268) of the same molecule?
Answer: 4.47 µM

Question: And the IC (TGI) (SF-268)?
Answer: 6.92 µM

Question: What about the CC50 (SF-268; [1]) of the same molecule?
Answer: 37.2 µM

Question: And the GI50 (HL-60(TB))?
Answer: 2.63 µM

Question: What about the IC50 (HL-60(TB)) of the same molecule?
Answer: 5.01 µM

Question: And the IC (TGI) (HL-60(TB))?
Answer: 8.91 µM

Question: And the CC50 (HL-60(TB); [1])?
Answer: ≥ 100 µM

Question: And the GI50 (TK-10)?
Answer: 100 µM

Question: What about the IC50 (TK-10) of the same molecule?
Answer: 100 µM

Question: What about the IC (TGI) (TK-10) of the same molecule?
Answer: 100 µM

Question: What about the CC50 (TK-10; [1]) of the same molecule?
Answer: ≥ 100 µM

Question: And the GI50 (SN12C)?
Answer: 5.37 µM

Question: And the IC50 (SN12C)?
Answer: 10 µM

Question: What about the IC (TGI) (SN12C) of the same molecule?
Answer: 20 µM

Question: What about the CC50 (SN12C; [1]) of the same molecule?
Answer: 53.7 µM

Question: What about the GI50 (786-0) of the same molecule?
Answer: 32.4 µM

Question: And the IC50 (786-0)?
Answer: 49 µM

Question: And the IC (TGI) (786-0)?
Answer: 100 µM

Question: And the CC50 (786-0; [1])?
Answer: ≥ 100 µM

Question: And the GI50 (SK-MEL-2)?
Answer: 13.2 µM

Question: What about the IC50 (SK-MEL-2) of the same molecule?
Answer: 28.8 µM

Question: What about the IC (TGI) (SK-MEL-2) of the same molecule?
Answer: 28.2 µM

Question: And the CC50 (SK-MEL-2; [1])?
Answer: 58.9 µM
